Data from paper PMC11180795 (Frontiers in Pharmacology, 2024).

Columns and labels:
COX-1 = molecular target: T1, COX-1 (Mus musculus, UniProt P22437); assay: Fluorometric COX activity assay in lysate of LPS-treated Raw 264.7 cells, COX-1; type: cell-based, Murine; conditions: compound at 20 µM, LPS 0.1 μg/mL, 24 h; untreated control 85.19 µU/mg
T1 construct: The cell lysate was centrifuged at 12000 x g for 3 min and the supernatant was collected for COX activity assay; endogenous in cells
T1 sequence (P22437 27-602): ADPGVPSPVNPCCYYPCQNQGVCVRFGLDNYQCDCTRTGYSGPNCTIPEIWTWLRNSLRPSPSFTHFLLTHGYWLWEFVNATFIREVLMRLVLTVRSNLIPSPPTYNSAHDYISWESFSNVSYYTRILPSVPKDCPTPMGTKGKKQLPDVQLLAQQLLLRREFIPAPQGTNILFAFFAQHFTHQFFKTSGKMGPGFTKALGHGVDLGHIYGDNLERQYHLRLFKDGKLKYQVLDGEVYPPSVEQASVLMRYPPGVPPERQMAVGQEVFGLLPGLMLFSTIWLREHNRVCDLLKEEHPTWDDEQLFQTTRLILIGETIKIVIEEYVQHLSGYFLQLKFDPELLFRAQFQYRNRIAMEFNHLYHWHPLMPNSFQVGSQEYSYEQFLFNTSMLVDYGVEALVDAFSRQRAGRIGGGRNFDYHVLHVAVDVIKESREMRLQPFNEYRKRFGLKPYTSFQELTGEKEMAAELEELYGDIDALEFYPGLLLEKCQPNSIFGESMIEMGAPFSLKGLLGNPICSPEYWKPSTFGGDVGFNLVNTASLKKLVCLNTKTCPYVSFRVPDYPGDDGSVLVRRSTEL
Method: The fluorometric cyclooxygenase activity assay kit (Biovision) was used to evaluate the activity of COX-1 and COX-2 enzymes. Raw 264.7 cells were seeded at 2 × 10^5 cells/mL in a 48-well microplate, and allowed to adhere for 24 h, then treated with LPS 0.1 μg/mL and compounds (1), (5) and (6) at 20 µM against Raw 264.7 cells. After 24 h the cyclooxygenase enzyme (COX-1 and COX-2) activity assay was performed. Cells were detached with TNE buffer (Tris 40 mM, NaCl 150 mM, EDTA 1 mM) and washed with PBS (1x), then re-suspended in 1 mL PBS (1x), transferred into 1.5 mL tube, and centrifuged at 500 x g for 3 min. The pellet was then re-suspended in 0.5 mL of lysis buffer with a protease inhibitor cocktail, vortexed, and incubated at 4°C for 5 min. The cell lysate was centrifuged at 12000 x g for 3 min and the supernatant was collected for COX activity assay. The COX activity was assessed using the fluorometric cyclooxygenase activity assay kit (Biovision) following the manufacturer’s instructions. The assay includes COX-1 and COX-2 specific inhibitors to differentiate the activity of COX-1 and COX-2 as well as other peroxidases. Indomethacin (10 µM) was used as a standard drug and appropriate controls were also included.

IL-6 = assay: Th1/Th2 cytokine measurement (Cytometric Bead Array) in LPS-stimulated Raw 264.7 cells, IL-6; type: cell-based, Murine; conditions: compound at 20 µM, LPS 0.1 μg/mL, 24 h; stimulated untreated control 175.96 pg/mL
Method: Raw 264.7 cells were seeded at 2 × 10^5 cells/mL in a 48-well microplate and allowed to adhere for 24 h, then treated with LPS 0.1 μg/mL and with compounds (1), (5) and (6) at 20 µM. Untreated cells and indomethacin (10 µM) were used as controls. After 24 h of incubation, the supernatant was collected and the amount of pro-inflammatory Th1 cytokines (IFN-γ, TNF-α, and IL-2) and anti-inflammatory Th2 cytokines (IL-4, IL-6, and IL-10) released measured. The experiment was performed according to the manufacturer’s instructions using BD™ Cytometric Bead Array (CBA) […] Th1/Th2 Cytokine Kit (BD-Biosciences), and data were acquired on a BD LSR Fortessa™ cell analyzer flow cytometer.

Row | melting point [°C] | COX-1 activity (COX-1) [µU/mg] | Structure (SMILES) | IL-6 level (IL-6) [pg/mL]
1 | 103 | 32.28 | CC(C)=CCC/C(C)=C/C[C@]12C[C@@H](CC=C(C)C)C(C)(C)[C@](C/C=C(\C)CCC=C(C)C)(C(=O)C(C(=O)c3ccc(O)c(O)c3)=C1O)C2=O [Compound 5, Guttiferone O] | –
2 | 82 | – | CC(C)=CCC/C(C)=C/C[C@]12C[C@@H](CC=C(C)C)C(C)(C)[C@](CC=C(C)C)(C(=O)C(C(=O)c3ccc(O)c(O)c3)=C1O)C2=O [Compound 6, Guttiferone M] | –
3 | – | 52.55 | CC(C)=CCc1c2c(c3oc4c(O)cccc4c(=O)c3c1O)C=CC(C)(C)O2 [Compound 1, Ananixanthone] | 144.25
